Consider eight molecules from patent publication US20170049843A1, “Hepatocyte Growth Factor Mimics as Therapeutic Agents” (WASHINGTON STATE UNIVERSITY, priority 2011, published 2017).

One data set has as its system scopolamine treated rats. As to the kind of experiment: Morris water maze, scopolamine amnesia model. In kind it is in vivo, rat. The settings on record: for mean latency to find the pedestal, final day of training / mean latency to find the pedestal, fourth day of training / mean latency to find the pedestal, day one of training: icv, scopolamine 70 nmol, Dihexa 300 pmol, Hinge 300 pmol; for mean latency to find the pedestal, final day of training / mean latency to find the pedestal, fourth day of training: vehicle 43.0 s; for mean latency to find the pedestal, day one of training: vehicle 89.3 s.

Data set [1] relates to hippocampal neurons. As to the kind of experiment: Spinogenesis in mRFP-β-actin transfected dissociated hippocampal neurons. In kind it is cell-based, rat. The protocol: Hippocampal neurons ([…] cells per square cm) were cultured from P1 Sprague Dawley rats on plates coated with poly-L-lysine from Sigma (St. Louis, Mo.; molecular weight 300,000). Hippocampal neurons were maintained in Neurobasal A media from Invitrogen (Carlsbad, Calif.) supplemented with B27 from Invitrogen, 0.5 mM L-glutamine, and […] cytosine-D-arabinofuranoside from Sigma added at 2 days in vitro. Hippocampal neurons were then cultured a further 3-7 days, at which time they were either transfected or treated with various pharmacological reagents as described in (Wayman, Davare et al. 2008).
Neurons were transfected with mRFP-β-actin on day in vitro 6 (DIV6) using LipofectAMINE™ 2000 (Invitrogen) according to the manufacturer's protocol. This protocol yielded the desired 3-5% transfection efficiency thus enabling the visualization of individual neurons. Higher efficiencies obscured the dendritic arbor of individual neurons. Expression of fluorescently tagged actin allowed clear visualization of dendritic spines, as dendritic spines are enriched in actin. On DIV7 the cells were treated with vehicle (H20) or peptides (as described in the text) added to media. On DIV12 the neurons were fixed (4% paraformaldehyde, 3% sucrose, 60 mM PIPES, 25 mM HEPES, 5 mM EGTA, 1 mM MgCl2, pH 7.4) for 20 min at room temperature and mounted. Slides were dried for at least 20 hours at 4° C. and fluorescent images were obtained with Slidebook 4.2 Digital Microscopy Software driving an Olympus IX81 inverted confocal microscope with a 60× oil immersion lens, NA 1.4 and resolution 0.280 μm Dendritic spine density was measured on primary and secondary dendrites at a distance of at least 150 μm from the soma. Five 50 μm long segments of dendrite from at least 10 neurons per data point were analyzed for each data point reported. Each experiment was repeated at least three times using independent culture preparations. Dendrite length was determined using the National Institutes of Health's Image J 1.41o program (NIH, Bethesda, Md.) and the neurite tracing program Neuron J (Meijering, Jacob et al. 2004) Spines were manually counted.
Hippocampal neurons (2×10^5 cells per square centimeter) were cultured from P1-2 Sprague Dawley rats on plates coated with poly-L-lysine from Sigma (St. Louis, Mo.; molecular weight 300,000). Hippocampal neurons were maintained in Neurobasal A media from Invitrogen (Carlsbad, Calif.) supplemented with B27 from Invitrogen, 0.5 mM L-glutamine, and […] cytosine-D-arabinofuranoside from Sigma added at 2 days in vitro. Hippocampal neurons were then cultured a further 3-7 days, at which time they were either transfected or treated with various pharmacological reagents as described in the text or figure legends.

Another data set can be described thus: Blood stability studies. In kind it is in vitro ADME, rat. The settings on record: rat, heparinized whole blood, heparinized rat blood, 37° C., single phase exponential decay; read-out: stability t1/2 in blood.
The target in data set [2] is T1, HGF (Homo sapiens, UniProt P14210).
T1 construct: purchased R&D Systems (Minneapolis, Minn.)
T1 sequence (P14210 32-728): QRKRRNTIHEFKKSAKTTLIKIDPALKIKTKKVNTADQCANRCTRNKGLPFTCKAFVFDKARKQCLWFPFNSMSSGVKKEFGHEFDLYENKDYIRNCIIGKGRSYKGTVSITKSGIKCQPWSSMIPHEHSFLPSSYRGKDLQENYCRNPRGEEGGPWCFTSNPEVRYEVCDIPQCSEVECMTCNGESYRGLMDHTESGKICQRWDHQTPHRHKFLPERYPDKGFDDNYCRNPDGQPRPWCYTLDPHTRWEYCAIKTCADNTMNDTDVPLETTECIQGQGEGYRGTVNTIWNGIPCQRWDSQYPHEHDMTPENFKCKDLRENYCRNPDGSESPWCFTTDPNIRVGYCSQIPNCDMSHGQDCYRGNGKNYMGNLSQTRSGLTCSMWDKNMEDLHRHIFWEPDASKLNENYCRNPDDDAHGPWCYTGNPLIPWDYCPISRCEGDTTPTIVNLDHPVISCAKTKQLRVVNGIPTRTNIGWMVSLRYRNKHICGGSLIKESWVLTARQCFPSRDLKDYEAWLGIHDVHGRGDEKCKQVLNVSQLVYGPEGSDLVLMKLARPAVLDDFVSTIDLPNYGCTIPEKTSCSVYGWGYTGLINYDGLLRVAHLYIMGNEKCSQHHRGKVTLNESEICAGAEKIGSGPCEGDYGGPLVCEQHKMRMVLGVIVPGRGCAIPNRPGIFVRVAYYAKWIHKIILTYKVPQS
As to the kind of experiment: HGF dimerization. In kind it is biochemical. To be noted: analog at 10^−10M, 30 minute incubation with heparin. The protocol:
HGF dimerization was assessed using PAGE followed by silver staining (Kawas et al., 2011). Human HGF at a concentration of 0.08 ng/μl with or without 6-AH analogs was incubated with heparin at a final concentration of 5 μg/ml. Loading buffer was then added to each sample and the mixture separated by native PAGE using gradient Criterion XT precast gels (4-12% Bis-Tris; Biorad Laboratories, Hercules, Calif.). Next the gel was silver stained for the detection of the HGF monomers and dimers. Bands were quantitated from digital images using a UVP phosphoimager (Upland, Calif.).

For another data set, the system named is Met. Briefly: Inhibition of HGF-dependent Met phosphorylation in HEK293 cells. In kind it is cell-based, human. The settings on record: 10 min. As to the method: HEK293 cells were seeded in 6 well tissue culture plates and grown to 95% confluency in DMEM containing 10% FBS. The cells were serum deprived for 24 h prior to the treatment to reduce the basal levels of phospho-Met. Following serum starvation, cocktails comprised of vehicle and HGF with/without 6-AH analogs were prepared and pre-incubated for 30 min at room temperature. The cocktail was then added to the cells for 10 min to stimulate the Met receptor and downstream proteins. Cells were harvested using RIPA lysis buffer (Millipore; Billerica, Mass.) fortified with phosphatase inhibitor cocktails 1 and 2 (Sigma-Aldrich; St. Louis, Mo.). The lysate was clarified by centrifugation at 15,000 n×g for 15 min, protein concentrations were determined using the BCA total protein assay (Pierce), and then appropriate volumes of the lysates were diluted with 2× reducing Laemmli buffer and heated for ten min at 95° C. Samples containing identical amounts of protein were resolved using SDS-PAGE (Criterion, BioRad Laboratories), transferred to nitrocellulose, and blocked in Tris-buffered saline (TBS) containing 5% milk for 1 h at room temperature. The phospho-Met antibody were added to the blocking buffer at a final concentration of 1:1000 and incubated at 4° C. overnight with gentle agitation. The membranes were then washed several times with water and TBS ([…]), a 1:5000 dilution of horseradish-peroxidase conjugated goat anti-rabbit antiserum was added, and the membranes further incubated for 1 h at room temperature. Proteins were visualized using the Supersignal West Pico Chemiluminescent Substrate system (Pierce, Fenton, Mo.) and molecular weights determined by comparison to protein ladders (BenchMark, Invitrogen, and Kaleidoscope, BioRad). Film images were digitized and analyzed using a UVP phosphoimager.

The target of data set [3] is T1, HGF. As to the kind of experiment: HGF binding, competition with 3H-Hinge. As to the method:
The binding of 6-AH analogs to HGF was assessed by competition using a soluble binding assay. 250 μl of PBS containing human HGF (1.25 ng) were incubated with ^3H-Hinge, the central dimerization domain of HGF, in the presence of varying concentrations of 6-AH analogs between 10^−13 M to 10^−7M (half-log dilutions) for 40 min at 37° C. The incubates were then spun through Bio-Gel P6 spin columns (400 μl packed volume) for 1 min to separate free and bound ^3H-Hinge and the eluent was collected. Five milliliters of scintillation fluid was added to the eluent, which contained the HGF bound ^3H-Hinge, and was then counted using scintillation counter. Total disintegrations per minute of bound ^3H-Hinge were calculated based on machine counting efficiency. The Ki values for the binding of the peptides were determined using the Prism 5. Competition binding curves were performed in triplicate.

Data set [4] concerns MDCK cells. Briefly: Inhibition of HGF-dependent scattering in MDCK cells. In kind it is cell-based, canine. To be noted: for inhibition of HGF-dependent scattering in MDCK cells: HGF 20 ng/ml, 48 h. As to the method:
(§1) MDCK cells were grown to 100% confluency on the coverslips in six-well plates and washed twice with PBS. The confluent coverslips were then aseptically transferred to new six well plates containing 900 μl serum free DMEM. Norleual, Hinge peptide, and/or HGF (20 ng/ml) were added to appropriate wells. Control wells received PBS vehicle. Plates were incubated at 37° C. with 5% CO2 for 48 hours. Media was removed and cells were fixed with methanol. Cells were stained with Diff-Quik Wright-Giemsa (Dade-Behring, Newark, Del.) and digital images were taken. Coverslips were removed with forceps and more digital images were captured. Pixel quantification of images was achieved using Image J and statistics were performed using Prism 5 and InStat v.3.05.
as §1, with “h.” for “hours.”, “v.3.05 (GraphPad; San Diego, Calif.).” for “v.3.05.”

Data set [5] deals with MDCK cells. Briefly: HGF-dependent MDCK cell proliferation (MTT). In kind it is cell-based, canine. The settings on record: 10^−10 M, 4 days, HGF 10 ng/ml. As to the method:
5000 MDCK cells were seeded into the wells of a 96 well plates in 10% FBS DMEM. To induce cellular quiescence, the cells were serum deprived for 24 h prior to initiating the treatments. Following serum starvation, 10 ng/ml HGF alone and with various concentrations of 6-AH analogs or PBS vehicle were added to the media. The cells were allowed to grow under these conditions for 4 days with a daily addition of 6-AH analogs. On the fourth day, 1 mg/ml of 1-(4, 5-Dimethylthiazol-2-yl) 3, 5-diphenylformazan reagent (MTT, Sigma-Aldrich) prepared in PBS was added to the cells and incubated for 4 h. Dimethyl sulfoxide diluted in a 0.01M glycine buffer was added to solubilize the cell membranes and the absorbance of reduced MTT in the buffer was quantitated at 590 nm using a plate reader (Biotek Synergy 2, Winooski, Vt.). HGF-dependent proliferation was determined by subtracting the basal proliferation (in the absence of HGF) from total proliferation rates in groups containing HGF.

Data set [6] concerns hippocampal neurons. Briefly: Whole-cell recordings of mEPSCs in dissociated hippocampal neurons. In kind it is cell-based, rat. Also noted: mean mEPSC frequency: unit not given beside the values. To be noted: 5 days; Hinge 10^−12 M, HGF 10 ng/ml, Dihexa 10^−12 M, alone or combined; vehicle 5.31±0.35.

Where a name gives a salt, the structure may show the parent alone. Where a SMILES comes first, the peptide text is derived from it. Where no end group is shown, it is not given here. [ ]: non-standard residue; d: D form. dNle = CCCC[C@@H](N)C(=O)O; Ahx = NCCCCCC(=O)O; GABA = NCCCC(=O)O

Procedure for Blood stability studies: At the end of each incubation, 20 μL of Nle^1-AngIV (100 μg/mL) was added to each sample as an internal standard. […] All samples were centrifuged at 4° C., 2300× g for 5 min and the supernatants were transferred to clean tubes.
Samples were then separated by HPLC on an Econosphere C18 (100 mm×2.1 mm) from Grace Davison Discovery Science (Deerfield, Ill.). […] The mobile phase consisted of HPLC water (Sigma St. Louis, Mo.) with 0.1% trifluoroacetic or 0.1% heptafluorobutyric acid (Sigma St. Louis, Mo.) and varying concentrations of ACN or methanol. Separation was carried out using a gradient method, at ambient temperature and a flow rate of 0.3 mL/min (see below for more information). Stability half-lives were determined assuming a normal single phase exponential decay using Prism 5 graphical/statistical program (GraphPad, San Diego, Calif.).

Consider [GABA]-Tyr-Ile [GABA-YI], for which, in the data set with scopolamine treated rats (analog 1 nmol icv after scopolamine), the “time in the target quadrant, day 9 probe trial” value is on record as “different than all the other treated groups”. In addition, the dendritic spine numbers entry in the data set on hippocampal neurons [1] (10^-8 and 10^-10 M) is recorded as “increased spine numbers”.

Turning to acetyl-Nle-YIH, the dendritic spine numbers result in the data set with hippocampal neurons [1] (10^-8 and 10^-10 M) is listed as “increased spine numbers”; in the data set on hippocampal neurons [1] (concentrations lower than 10^-10 M) it was “increasing spine numbers at even lower concentrations”.

Regarding `CCCC[C@H](N)C(=O)N[C@@H](Cc1ccc(O)cc1)C(=O)N[C@H](CN[C@@H](Cc1c[nH]cn1)C(=O)N1CCC[C@H]1C(=O)N[C@@H](Cc1ccccc1)C(=O)O)CC(C)C` [Norleual, Nle-Tyr-Leu-Ψ-(CH2—NH2)^3-4-His-Pro-Phe, reference compound], the half-life in “Blood stability studies” is less than 5 min.

As to `CCCC[C@@H](N)C(=O)N[C@@H](CCSC)C(=O)N[C@H](C(=O)NCCCCCC(N)=O)[C@@H](C)CC` [D-Nle-Met-Ile-NH—(CH2)5—CONH2] (H-[dNle]MI[Ahx]-NH2), the “inhibition of HGF dimerization” value on HGF [2] was “unable to block dimerization at the concentration tested”. The “inhibition of HGF-dependent Met phosphorylation” value in the data set with Met is “no ability to effect on Met activation”; in the data set on Met (listed as Met) it was “not different than the HGF group”. The “affinity for HGF (in words)” value at HGF [3] is listed as “low affinity for HGF”. Also, the “inhibition of HGF-dependent scattering in MDCK cells” value in the data set with MDCK cells [4] was “not different”.

For Nle-YIH-amide, the dendritic spine numbers result in the data set with hippocampal neurons [1] (10^-8 and 10^-10 M) is recorded as “increased spine numbers”.

For `CCCC[C@@H](N)C(=O)N[C@@H](Cc1c[nH]c2ccccc12)C(=O)N[C@H](C(=O)NCCCCCC(N)=O)[C@@H](C)CC` [D-Nle-Trp-Ile-NH—(CH2)5—CONH2] (H-[dNle]WI[Ahx]-NH2), the “inhibition of HGF dimerization” value on HGF [2] is given as “intermediate inhibition of dimerization”; against HGF [2] (listed as Trp), “statistically different than the HGF treated group”. The “inhibition of HGF-dependent MDCK cell proliferation” value with MDCK cells [5] was “inhibitory activity, albeit less than that observed with the most potent analogs”. Besides, the “inhibition of HGF-dependent Met phosphorylation” value in the data set on Met is “intermediate inhibitory activity”. Also, on HGF [3], the “affinity for HGF (in words)” value is recorded as “moderate affinity for HGF”. Moreover, the “inhibition of HGF-dependent scattering in MDCK cells” value in the data set on MDCK cells [4] is “different from the HGF alone group but not different from the control group”.

In the case of `CN1[C@@H]2C[C@@H](OC(=O)[C@H](CO)c3ccccc3)C[C@H]1[C@@H]1O[C@@H]12` [scopolamine, scopolamine hydrobromide, reference compound], in the data set with scopolamine treated rats, the “mean latency to find the pedestal, final day of training” value stood at 84.8 s; the “mean latency to find the pedestal, fourth day of training” value was found to be 102.4 s; the “mean latency to find the pedestal, day one of training” value was found to be 114.7 s.

Turning to “DYIRNC (Synthetic hinge peptide) [HGF antagonist peptide representing the dimerization (hinge) domain of HGF; also printed KDYIRN, reference compound]”, in the data set with scopolamine treated rats, the “mean latency to find the pedestal, final day of training” value is 46.1 s; the “mean latency to find the pedestal, fourth day of training” value was 78.3 s; the “mean latency to find the pedestal, day one of training” value was 111.1 s. In addition, the “mean mEPSC frequency” value in the data set on hippocampal neurons [6] was 4.51±0.47. Also, the “inhibition of scattering of MDCK cells by Hinge” value in the data set with MDCK cells [4] is on record as “inhibit scattering of Madin-Darby canine kidney (MDCK) cells”. Besides, the “inhibition of spine formation in stimulated neurons” value in the data set on hippocampal neurons [1] (neurons stimulated with 10 ng/ml HGF, 10^−12 M Nle1-AngIV or 10^−12 M Dihexa) was “effectively inhibit spine formation”. In the data set with hippocampal neurons [1] (wide range of doses), the “effect of Hinge alone on basal spinogenesis” value is “no effect on spinogenesis over a wide range of doses”.
